Measurements: ChEMBL document CHEMBL1201862, “PubChem BioAssay data set” (2004)
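Briefly, cells in 96-well plates were exposed to five compound concentrations for 48 h, and endpoints were estimated by linear interpolation. GI50 = concentration required for 50% inhibition of growth.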 Active and inactive are the calls of the source. Rule as the data show it: active = GI50 up to about 1.1 µM and inactive = higher.

Legend:
Assay in all cases: NCI-60 cell line screen, 48 h
K562 = test system: K562
HOP-62 = test system: HOP-62
SF-295 = test system: SF-295
Malme-3M = test system: Malme-3M
CAKI-1 = test system: CAKI-1
UO-31 = test system: UO-31
NCI-H460 = test system: NCI-H460
HCT-15 = test system: HCT-15
UACC-62 = test system: UACC-62
COLO 205 = test system: COLO 205
HL-60 = test system: HL-60
NCI-H226 = test system: NCI-H226
SW-620 = test system: SW-620
786-0 = test system: 786-0
Hs-578T = test system: Hs-578T
SK-MEL-2 = test system: SK-MEL-2
LOX IMVI = test system: LOX IMVI
HOP-92 = test system: HOP-92
DU-145 = test system: DU-145
SNB-75 = test system: SNB-75

| SMILES | GI50 (K562) | GI50 (HOP-62) | GI50 (SF-295) | GI50 (Malme-3M) | GI50 (CAKI-1) | GI50 (UO-31) | GI50 (NCI-H460) | GI50 (HCT-15) [µM] | GI50 (UACC-62) | GI50 (COLO 205) | GI50 (HL-60) | GI50 (NCI-H226) | GI50 (SW-620) | GI50 (786-0) | GI50 (Hs-578T) | GI50 (SK-MEL-2) | GI50 (LOX IMVI) | GI50 (HOP-92) | GI50 (DU-145) | GI50 (SNB-75) |
| --- | --- | --- | --- | --- | --- | --- | --- | --- | --- | --- | --- | --- | --- | --- | --- | --- | --- | --- | --- | --- |
| O=c1[nH]nc(-c2ccccc2)n1/N=C/c1c[nH]c2ccccc12 | > 100 µM (inactive) | > 100 µM (inactive) | > 100 µM (inactive) | > 100 µM (inactive) | > 100 µM (inactive) | > 100 µM (inactive) | > 100 µM (inactive) | > 100 | 96.8 µM (inactive) | > 100 µM (inactive) | > 100 µM (inactive) | > 100 µM (inactive) | > 100 µM (inactive) | 56.2 µM (inactive) | > 100 µM (inactive) | > 100 µM (inactive) | 58.7 µM (inactive) | > 100 µM (inactive) | > 100 µM (inactive) | – |
| CO[C@]12C[C@H](CNC(=O)c3ccc[nH]3)O[C@H]1NC(=O)N2 | > 100 µM (inactive) | > 100 µM (inactive) | > 100 µM (inactive) | > 100 µM (inactive) | > 100 µM (inactive) | > 100 µM (inactive) | > 100 µM (inactive) | > 100 | > 100 µM (inactive) | > 100 µM (inactive) | > 100 µM (inactive) | > 100 µM (inactive) | > 100 µM (inactive) | > 100 µM (inactive) | > 100 µM (inactive) | > 100 µM (inactive) | > 100 µM (inactive) | > 100 µM (inactive) | > 100 µM (inactive) | – |
| CCC(c1ccc2cc(O)ccc2c1)C(C)(C)C(=O)O (centres undefined) | > 100 µM (inactive) | > 100 µM (inactive) | > 100 µM (inactive) | > 100 µM (inactive) | > 100 µM (inactive) | > 100 µM (inactive) | > 100 µM (inactive) | > 100 | > 100 µM (inactive) | > 100 µM (inactive) | – | > 100 µM (inactive) | > 100 µM (inactive) | > 100 µM (inactive) | > 100 µM (inactive) | > 100 µM (inactive) | > 100 µM (inactive) | > 100 µM (inactive) | > 100 µM (inactive) | > 100 µM (inactive) |
| O=C(N(O)c1ccccc1Cl)C(O)(c1ccccc1)c1ccccc1 | 24.4 µM (inactive) | > 100 µM (inactive) | 30.4 µM (inactive) | > 100 µM (inactive) | 30.2 µM (inactive) | 20.6 µM (inactive) | > 100 µM (inactive) | 39.3 | 45.8 µM (inactive) | > 100 µM (inactive) | 22.6 µM (inactive) | > 100 µM (inactive) | 42.7 µM (inactive) | 31.3 µM (inactive) | 42.5 µM (inactive) | > 100 µM (inactive) | 49.3 µM (inactive) | 26.1 µM (inactive) | 59.8 µM (inactive) | – |
| COC(=O)C#Cc1cccc(OC)c1OC | 21.1 µM (inactive) | 98.2 µM (inactive) | 40.5 µM (inactive) | 28 µM (inactive) | 28.6 µM (inactive) | 20.4 µM (inactive) | 48.1 µM (inactive) | 32.4 | 48.3 µM (inactive) | 27 µM (inactive) | 33 µM (inactive) | 43.3 µM (inactive) | 47 µM (inactive) | 43.8 µM (inactive) | 37.3 µM (inactive) | – | 33.7 µM (inactive) | 25.8 µM (inactive) | 88.1 µM (inactive) | – |
